According to patent publication US20250101023A1, “HETEROARYL DERIVATIVE AND USES THEREOF” (IUCF-HYU (INDUSTRY-UNIVERSITY COOPERATION FOUNDATION …, priority 2022, published 2025):
Read-outs that look alike come from different tables or passages of the source.

How the values were obtained:
[1] = Body weight in SK-Br3 xenograft model; format: in vivo, mouse; settings: 20 mg/kg, i.p. twice a week
Method: A mouse efficacy experiment was conducted after obtaining approval from the Laboratory Animal Ethics Committee of GenNBio (Review No.: GN-IACUC-Research 22-02-07). SK-Br3 and HCC-1954 cells (1×10^6 cells each) mixed with Matrigel (BD Biosciences) were […] injected into 5-week-old female Balb/c nude mice (Orient Bio, Seongnam, Republic of Korea). After tumors reached a size of about 100 mm^3, the compound, trastuzumab (20 mg/kg), and the like were intraperitoneally injected into mice (n=8 per group)(vehicle: 8% DMSO, 4% Tween-80, 88% PBS). The tumor size was measured twice weekly for about 4 weeks and calculated as follows. Volume (mm^3)=(a×b^2)/2; “a”, maximum diameter; “b”, vertical diameter

[2] = system: HCC1954 cells; experiment: Breast cancer growth inhibitory activity (Cell-titer Glo, 72 h); format: cell-based; settings: Homo sapiens
Method: (§1) Breast cancer cells in a culture solution (100 μL volume/well, 2,500 SK-Br3 cells/well, 1,000 HCC-1954 cells/well) were seeded into a tissue culture-treated 96-well plate and cultured in a cell incubator for 24 hours. […] Cell-titer Glo™ reagent (50 μL of a 5-fold diluted solution, Promega) was added to each well, and luminescence signals were measured using an Envision™ plate reader (PerkinElmer, USA). Titration curve fitting and IC50 values were generated using Prism 7.0 s/w (GraphPad, San Diego, USA).

[3] = system: SK-Br3 cells; experiment: as above; format: cell-based; settings: Homo sapiens, SK-BR-3
Method: as §1

[4] = molecular target: CDK12/CyclinK (Homo sapiens (Human), UniProt Q9NYV4); experiment: CDK12/cyclinK enzyme activity; format: biochemical; settings: in vitro
[5] = molecular target: CYP1A2 (Homo sapiens (Human), UniProt P05177); experiment: in vitro; format: in vitro ADME
Method: (§2) 5 derivatives were evaluated for in vitro metabolic stability in liver microsomes from three different species (human, dog, mouse) and for inhibitory activity against 5 representative cytochrome P450 enzymes (CYPs)(Table 3). In terms of liver microsomal stability, the 2′-pyridyl group is more suitable than the α-methyl-4′-pyridyl group as the terminal aromatic group at position 6, and the aminopyrimidyl group is better than the aminopyridyl group as a substituent at position 2.

[6] = Liver microsomal metabolic stability; format: in vitro ADME; settings: for Liver microsomal metabolic stability (% remaining amount) Dog: dog liver microsomes; for Liver microsomal metabolic stability (% remaining amount) Human: human liver microsomes; for Liver microsomal metabolic stability (% remaining amount) Mouse: mouse liver microsomes
Method: as §2

[7] = molecular target: CYP3A4 (Homo sapiens (Human), UniProt P08684); experiment: CYP inhibitory activity; format: in vitro ADME; settings: read-out: CYP % activity at 10 μM concentration 3A4
Method: as §2

[8] = molecular target: CYP2C9 (Homo sapiens (Human), UniProt P11712); experiment: CYP inhibitory activity; format: in vitro ADME; settings: read-out: CYP % activity at 10 μM concentration 2C9
Method: as §2

[9] = molecular target: CYP2C19 (Homo sapiens (Human), UniProt P33261); experiment: CYP inhibitory activity; format: in vitro ADME; settings: read-out: CYP % activity at 10 μM concentration 2C19
Method: as §2

[10] = molecular target: CYP2D6 (Homo sapiens (Human), UniProt P10635); experiment: CYP inhibitory activity; format: in vitro ADME; settings: read-out: CYP % activity at 10 μM concentration 2D6
Method: as §2

[11] = system: Pol II CTD (Ser2) phosphorylation; experiment: Western blot, Pol II CTD Ser2 phosphorylation; format: cell-based; settings: SK-Br3 and HCC1954 cell lines, 40 and 200 nM, 2 hours
[12] = system: IRS1 and WNT1; experiment: Western blot, CDK12 downstream gene expression; format: cell-based; settings: SK-Br3 and HCC1954 cell lines, 40 and 200 nM, 24 hours
[13] = system: cyclinK; experiment: Western blot, cyclinK degradation; format: cell-based; settings: SK-Br3 and HCC1954 cell lines, 40 and 200 nM, 2 hours
[14] = 72 hours, read-out: SK-Br3 (GI50/μM)

CYP2C19, sequence (P33261 whole entry): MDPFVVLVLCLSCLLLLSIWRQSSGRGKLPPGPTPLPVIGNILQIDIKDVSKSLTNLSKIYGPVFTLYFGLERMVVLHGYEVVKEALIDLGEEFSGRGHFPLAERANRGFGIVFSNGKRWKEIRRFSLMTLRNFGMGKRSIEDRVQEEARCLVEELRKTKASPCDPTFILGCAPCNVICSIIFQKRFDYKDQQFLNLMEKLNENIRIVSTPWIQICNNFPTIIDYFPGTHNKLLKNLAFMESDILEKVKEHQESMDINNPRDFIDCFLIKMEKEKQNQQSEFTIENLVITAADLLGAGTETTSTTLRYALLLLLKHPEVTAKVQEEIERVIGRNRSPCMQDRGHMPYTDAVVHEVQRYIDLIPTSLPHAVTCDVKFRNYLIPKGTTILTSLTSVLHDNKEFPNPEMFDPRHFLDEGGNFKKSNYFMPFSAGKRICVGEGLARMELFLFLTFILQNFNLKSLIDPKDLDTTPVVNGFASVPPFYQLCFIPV
CYP2C9, sequence (P11712 whole entry): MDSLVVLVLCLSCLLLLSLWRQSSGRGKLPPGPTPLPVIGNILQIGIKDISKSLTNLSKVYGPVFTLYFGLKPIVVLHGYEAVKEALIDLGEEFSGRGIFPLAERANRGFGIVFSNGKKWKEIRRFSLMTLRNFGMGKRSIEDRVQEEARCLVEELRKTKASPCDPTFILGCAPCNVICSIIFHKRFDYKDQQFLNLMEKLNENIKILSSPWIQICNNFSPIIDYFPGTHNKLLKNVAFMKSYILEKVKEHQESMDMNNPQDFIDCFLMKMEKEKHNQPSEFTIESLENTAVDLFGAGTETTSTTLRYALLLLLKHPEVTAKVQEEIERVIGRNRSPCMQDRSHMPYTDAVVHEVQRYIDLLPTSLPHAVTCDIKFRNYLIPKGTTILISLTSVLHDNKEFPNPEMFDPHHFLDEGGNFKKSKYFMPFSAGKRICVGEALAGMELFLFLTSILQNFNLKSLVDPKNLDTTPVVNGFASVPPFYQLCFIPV
CYP3A4, sequence (P08684 whole entry): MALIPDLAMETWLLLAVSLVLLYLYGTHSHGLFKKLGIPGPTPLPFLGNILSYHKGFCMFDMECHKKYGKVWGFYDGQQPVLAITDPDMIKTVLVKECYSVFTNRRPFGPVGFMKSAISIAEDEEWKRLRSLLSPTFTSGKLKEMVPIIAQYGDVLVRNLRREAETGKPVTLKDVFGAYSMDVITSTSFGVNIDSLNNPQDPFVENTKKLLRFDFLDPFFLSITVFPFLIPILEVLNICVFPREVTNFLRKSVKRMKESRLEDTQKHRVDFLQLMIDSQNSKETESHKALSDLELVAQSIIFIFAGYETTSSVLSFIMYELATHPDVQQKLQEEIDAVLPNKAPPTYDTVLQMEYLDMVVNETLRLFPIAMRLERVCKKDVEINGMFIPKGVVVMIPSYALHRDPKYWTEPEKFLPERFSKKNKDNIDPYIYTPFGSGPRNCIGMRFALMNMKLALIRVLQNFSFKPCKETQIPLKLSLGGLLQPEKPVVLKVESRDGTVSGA
CYP1A2, sequence (P05177 whole entry): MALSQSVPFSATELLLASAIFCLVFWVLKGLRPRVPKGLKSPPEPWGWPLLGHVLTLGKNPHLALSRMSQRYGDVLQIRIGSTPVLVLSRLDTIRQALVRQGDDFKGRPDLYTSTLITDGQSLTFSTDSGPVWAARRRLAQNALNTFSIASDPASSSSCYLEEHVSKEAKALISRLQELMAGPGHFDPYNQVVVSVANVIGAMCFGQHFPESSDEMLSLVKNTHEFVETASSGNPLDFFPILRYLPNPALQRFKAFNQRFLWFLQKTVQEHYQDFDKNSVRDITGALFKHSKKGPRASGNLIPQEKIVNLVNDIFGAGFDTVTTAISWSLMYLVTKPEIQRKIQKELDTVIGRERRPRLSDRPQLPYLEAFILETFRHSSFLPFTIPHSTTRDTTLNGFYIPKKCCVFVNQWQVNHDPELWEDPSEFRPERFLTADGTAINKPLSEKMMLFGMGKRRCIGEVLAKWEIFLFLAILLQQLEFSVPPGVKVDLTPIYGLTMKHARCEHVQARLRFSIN
CYP2D6, sequence (P10635 whole entry): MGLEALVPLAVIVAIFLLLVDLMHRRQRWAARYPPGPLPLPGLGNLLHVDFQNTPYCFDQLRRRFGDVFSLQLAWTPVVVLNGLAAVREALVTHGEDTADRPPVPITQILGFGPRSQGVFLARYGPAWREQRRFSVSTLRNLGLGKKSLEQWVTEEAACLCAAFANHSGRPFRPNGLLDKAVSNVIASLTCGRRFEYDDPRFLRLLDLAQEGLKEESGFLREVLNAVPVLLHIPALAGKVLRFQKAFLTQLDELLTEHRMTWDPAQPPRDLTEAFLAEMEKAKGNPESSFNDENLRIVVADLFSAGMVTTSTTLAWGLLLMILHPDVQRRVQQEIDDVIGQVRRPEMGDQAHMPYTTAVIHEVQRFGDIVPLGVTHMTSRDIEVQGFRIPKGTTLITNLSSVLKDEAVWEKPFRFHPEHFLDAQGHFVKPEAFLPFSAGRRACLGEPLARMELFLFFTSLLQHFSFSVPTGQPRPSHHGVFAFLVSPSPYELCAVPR
CDK12/CyclinK, sequence (Q9NYV4 whole entry): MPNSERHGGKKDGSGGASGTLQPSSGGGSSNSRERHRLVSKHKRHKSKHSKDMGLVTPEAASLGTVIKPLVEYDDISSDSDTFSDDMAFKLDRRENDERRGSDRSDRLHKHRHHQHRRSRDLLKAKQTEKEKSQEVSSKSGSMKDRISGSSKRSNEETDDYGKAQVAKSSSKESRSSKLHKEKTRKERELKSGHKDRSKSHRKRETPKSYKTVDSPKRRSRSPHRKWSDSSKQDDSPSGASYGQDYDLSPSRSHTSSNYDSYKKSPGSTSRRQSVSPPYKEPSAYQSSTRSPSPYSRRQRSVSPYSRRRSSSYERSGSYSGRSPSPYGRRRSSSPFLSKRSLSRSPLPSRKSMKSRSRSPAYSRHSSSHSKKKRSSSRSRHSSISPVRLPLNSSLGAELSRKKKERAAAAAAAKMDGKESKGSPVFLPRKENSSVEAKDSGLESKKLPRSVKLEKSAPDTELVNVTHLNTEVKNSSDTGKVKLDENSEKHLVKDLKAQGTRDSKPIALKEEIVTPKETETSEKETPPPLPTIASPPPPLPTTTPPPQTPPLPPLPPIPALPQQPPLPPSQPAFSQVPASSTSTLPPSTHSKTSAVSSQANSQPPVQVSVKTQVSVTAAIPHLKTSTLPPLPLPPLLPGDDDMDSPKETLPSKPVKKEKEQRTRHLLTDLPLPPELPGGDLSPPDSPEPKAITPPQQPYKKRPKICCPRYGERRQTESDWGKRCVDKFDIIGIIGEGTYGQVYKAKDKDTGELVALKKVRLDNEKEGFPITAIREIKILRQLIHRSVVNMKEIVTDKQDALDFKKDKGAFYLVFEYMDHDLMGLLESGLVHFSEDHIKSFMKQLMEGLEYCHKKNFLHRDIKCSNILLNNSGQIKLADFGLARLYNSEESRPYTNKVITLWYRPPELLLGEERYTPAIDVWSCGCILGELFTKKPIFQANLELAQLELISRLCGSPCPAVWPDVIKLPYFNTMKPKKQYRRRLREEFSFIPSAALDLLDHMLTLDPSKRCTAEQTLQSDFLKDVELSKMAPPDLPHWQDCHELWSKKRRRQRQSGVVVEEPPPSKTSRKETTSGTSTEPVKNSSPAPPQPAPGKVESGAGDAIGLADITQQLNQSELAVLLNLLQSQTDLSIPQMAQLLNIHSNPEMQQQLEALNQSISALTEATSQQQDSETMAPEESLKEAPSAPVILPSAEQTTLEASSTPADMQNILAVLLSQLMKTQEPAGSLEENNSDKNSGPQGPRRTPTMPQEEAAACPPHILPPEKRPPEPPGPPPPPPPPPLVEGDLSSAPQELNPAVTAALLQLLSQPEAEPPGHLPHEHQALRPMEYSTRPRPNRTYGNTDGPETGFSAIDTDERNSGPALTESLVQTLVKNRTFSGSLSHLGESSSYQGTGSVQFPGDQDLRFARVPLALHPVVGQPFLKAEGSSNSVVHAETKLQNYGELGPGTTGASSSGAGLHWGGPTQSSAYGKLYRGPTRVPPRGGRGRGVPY
CDK12/CyclinK, sequence (O75909 whole entry partner): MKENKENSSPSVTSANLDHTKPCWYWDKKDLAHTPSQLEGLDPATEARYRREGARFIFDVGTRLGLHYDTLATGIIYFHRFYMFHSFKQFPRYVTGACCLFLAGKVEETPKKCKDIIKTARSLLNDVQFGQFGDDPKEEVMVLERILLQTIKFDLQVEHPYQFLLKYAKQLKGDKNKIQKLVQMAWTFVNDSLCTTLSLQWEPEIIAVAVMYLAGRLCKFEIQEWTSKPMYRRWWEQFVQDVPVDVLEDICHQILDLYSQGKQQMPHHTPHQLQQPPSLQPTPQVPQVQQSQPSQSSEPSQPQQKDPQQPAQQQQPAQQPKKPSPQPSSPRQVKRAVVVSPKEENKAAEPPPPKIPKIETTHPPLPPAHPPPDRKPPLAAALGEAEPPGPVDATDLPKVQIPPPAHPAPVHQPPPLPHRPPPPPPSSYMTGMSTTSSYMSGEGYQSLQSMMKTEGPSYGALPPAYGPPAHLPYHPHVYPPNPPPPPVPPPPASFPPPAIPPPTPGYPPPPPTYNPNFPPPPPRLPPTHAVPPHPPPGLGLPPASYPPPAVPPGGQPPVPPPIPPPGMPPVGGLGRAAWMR

## CCc1cnn2c(NCc3ccc[n+]([O-])c3)cc(N3CCCC[C@H]3CCO)nc12 [Dinaciclib, reference compound]
[1]
  mouse body weight: toxicity with a decrease in body weight in mice
[2]; read-out: HCC1954 GI50
  GI50: 0.012 µM
[3]; read-out: SK-Br3 GI50
  GI50: 0.012 µM

## CCn1cnc2c(NCc3ccc(-c4ccnc(C)c4)nc3)nc(-c3ccc(N)nc3)nc21 [Example 49, 2-(6-aminopyridin-3-yl)-9-ethyl-N-((2′-methyl-[2,4′-bipyridin]-5-yl)methyl)-9H-purin-6-amine]
[4]
  IC50: 0.012 µM
[5]
  activity at 10 µM: 59.3%
[3]; [14]
  GI50: 0.133 µM
[6]
  Liver microsomal metabolic stability (% remaining amount) Dog: 45.1%
  Liver microsomal metabolic stability (% remaining amount) Human: 32.2%
  Liver microsomal metabolic stability (% remaining amount) Mouse: 35.3%
[7]
  activity at 10 µM: 38.9%
[8]
  activity at 10 µM: 73%
[9]
  activity at 10 µM: 76.8%
[10]
  activity at 10 µM: 89.6%

## CCn1cnc2c(NCc3ccc(-c4ccnc(C)c4)nc3)nc(-c3cnc(N)nc3)nc21 [Example 50, 2-(2-aminopyrimidin-5-yl)-9-ethyl-N-((2′-methyl-[2,4′-bipyridin]-5-yl)methyl)-9H-purin-6-amine]
[4]
  IC50: 0.019 µM
[5]
  activity at 10 µM: 74.9%
[6]
  Liver microsomal metabolic stability (% remaining amount) Dog: 53.6%
  Liver microsomal metabolic stability (% remaining amount) Human: 40.6%
  Liver microsomal metabolic stability (% remaining amount) Mouse: 45.0%
[7]
  activity at 10 µM: 72.4%
[8]
  activity at 10 µM: 82.9%
[9]
  activity at 10 µM: 75.4%
[10]
  activity at 10 µM: 85.7%

## CCn1cnc2c(NCc3ccc(-c4ccnc(C)c4)nc3)nc(-c3cncnc3)nc21 [Example 51, 9-ethyl-N-((2′-methyl-[2,4′-bipyridin]-5-yl)methyl)-2-(pyrimidin-5-yl)-9H-purin-6-amine]
[4]
  IC50: 0.056 µM
[5]
  activity at 10 µM: 68.6%
[2]; 72 hours, read-out: HCC1954 (GI50/μM)
  GI50: 0.156 µM
[3]; [14]
  GI50: 0.192 µM
[6]
  Liver microsomal metabolic stability (% remaining amount) Dog: 79.5%
  Liver microsomal metabolic stability (% remaining amount) Human: 27.3%
  Liver microsomal metabolic stability (% remaining amount) Mouse: 34.0%
[7]
  activity at 10 µM: 31.8%
[8]
  activity at 10 µM: 67.5%
[9]
  activity at 10 µM: 73.9%
[10]
  activity at 10 µM: 88.8%

## CCn1cnc2c(NCc3ccc(-c4ccccn4)nc3)nc(-c3cnc(N)nc3)nc21 [Example 54, N-([2,2′-bipyridin]-5-ylmethyl)-2-(2-aminopyrimidin-5-yl)-9-ethyl-9H-purin-6-amine]
[11]
  Pol II CTD (Ser2) phosphorylation: inhibited Pol II CTD (Ser2) phosphorylation
[11]; listed as Compound 54
  Pol II CTD (Ser2) phosphorylation: strong dose-dependent suppression of Pol II phosphorylation
[4]
  IC50: 0.077 µM
[12]
  expression of IRS1 and WNT1: inhibited the expression of IRS1 and WNT1
[12]; listed as Compound 54
  expression of IRS1 and WNT1: strongly suppressed
[5]
  activity at 10 µM: 87.6%
[13]
  cyclinK degradation: induced cyclinK degradation
[13]; listed as Compound 54
  cyclinK degradation: cyclinK levels were greatly suppressed in a dose-dependent manner
[6]
  Liver microsomal metabolic stability (% remaining amount) Dog: 67.6%
  Liver microsomal metabolic stability (% remaining amount) Human: 100%
  Liver microsomal metabolic stability (% remaining amount) Mouse: 85.0%
[7]
  activity at 10 µM: 92.8%
[8]
  activity at 10 µM: 81.6%
[9]
  activity at 10 µM: 72.6%
[10]
  activity at 10 µM: 92.1%
